The values that follow come from article PMC6332029, “Mimosine Dipeptide Enantiomsers: Improved Inhibitors against Melanogenesis and Cyclooxygenase” (Molecules, 2015).

Structures are written as SMILES. Several values for one entry are separate records, joined by “and”; a condition that tells them apart may be missing. Identical values can stand only once. Like-named read-outs stand apart in the source and are kept apart here.

One test deals with B16F10 melanoma cells. The test can be described thus: Determination of melanin content in B16F10 cells. In kind it is cell-based, Mouse. The conditions noted are these: read-out: IC50 for Melanin Content Inhibition. How it is done: (§1) Mouse B16F10 cell line was obtained from American Type Culture Collection (Manassas, VA, USA). Cells were cultured in Dulbecco’s modified minimum essential medium (D-MEM) medium containing 10% fetal bovine serum (FBS), 1% penicillin/streptomycin in a humidified atmosphere with 5% CO2 incubator at 37 °C.
The assay was performed following previously described procedure. Cells (5 × 10^3 cells/well) were seeded in a 96-well plate and cultured for 24 h. Compounds (10–500 μM) were added and incubated at 37 °C for 48 h. The medium was replaced by a fresh medium containing the same concentration of compound and the cells were incubated for 48 h. The medium was removed and the cells were dissolved in 100 μL of 1 N NaOH. The reaction was heated at 90 °C for 1 h. Melanin content was estimated by the absorbance at 400 nm.

Test [1] relates to intracellular tyrosinase in B16F10 melanoma cells. Nature of the test: Intracellular tyrosinase inhibition assay. In kind it is cell-based, Mouse. The conditions noted are these: L-DOPA substrate, mean ± SE, read-out: IC50 for Cellular Tyrosinase Inhibition. How it is done: as §1
Cells were seeded in a 96-well plate at a density 5 × 10^3 cells/well and the compounds (10–500 μM) were added after 24 h treatment. Cells were incubated for 48 h, washed two times with 50 mM of ice-cold phosphate buffer (pH 6.8), lysed with 90 μL of 50 mM phosphate buffer (pH 6.8) containing 1% Triton-X, and frozen at −80 °C for 30 min. After thawing and mixing, 20 μL of 0.5% L-DOPA was added to each well. The mixture was incubated for 2 h at 37 °C and absorbance was measured at 490 nm.

Test [2] concerns the target mushroom tyrosinase. Nature of the test: Mushroom tyrosinase inhibition microplate assay (L-tyrosine substrate). In kind it is biochemical. The conditions noted are these: L-tyrosine as substrate; mean ± SE. The procedure:
(§2) A microplate assay was used to assess tyrosinase inhibition, as previously described. Samples (20 μL) with various concentrations were transferred into each well of 96-well plate, and 120 μL of 20 mM sodium phosphate buffer (pH 6.8), 20 μL of 500 U/mL mushroom tyrosinase enzyme dissolved in buffer were added. […] The absorbance was recorded at 470 nm using a microplate reader (Benchmark plus, Biorad, Herfordshire, UK). […] For the kinetic studies of selected inhibitors, we used a range of L-tyrosine concentrations for each inhibitor concentration. Preincubation and measurement times were the same as above. Lineweaver-Burk plots were used to determine the type of enzyme inhibition, and the inhibition constant Ki was determined by plotting Km/Vmax versus the inhibitor concentration. Percent inhibition was calculated using the following equation: Inhibition (%) = ([CE − Co] − [SE − So])/(CE − Co) × 100 (1) where CE is the absorbance of the control samples with enzyme, Co is the absorbance of the control samples without enzyme, SE is the absorbance of the tested sample with enzyme, and So is the absorbance of the tested sample without enzyme.

The next test addresses T1, COX-1 (Ovis aries, UniProt P05979).
T1 construct: purchased Cayman Chemical, Ann Arbor, Michigan, USA
T1 sequence (P05979 25-600): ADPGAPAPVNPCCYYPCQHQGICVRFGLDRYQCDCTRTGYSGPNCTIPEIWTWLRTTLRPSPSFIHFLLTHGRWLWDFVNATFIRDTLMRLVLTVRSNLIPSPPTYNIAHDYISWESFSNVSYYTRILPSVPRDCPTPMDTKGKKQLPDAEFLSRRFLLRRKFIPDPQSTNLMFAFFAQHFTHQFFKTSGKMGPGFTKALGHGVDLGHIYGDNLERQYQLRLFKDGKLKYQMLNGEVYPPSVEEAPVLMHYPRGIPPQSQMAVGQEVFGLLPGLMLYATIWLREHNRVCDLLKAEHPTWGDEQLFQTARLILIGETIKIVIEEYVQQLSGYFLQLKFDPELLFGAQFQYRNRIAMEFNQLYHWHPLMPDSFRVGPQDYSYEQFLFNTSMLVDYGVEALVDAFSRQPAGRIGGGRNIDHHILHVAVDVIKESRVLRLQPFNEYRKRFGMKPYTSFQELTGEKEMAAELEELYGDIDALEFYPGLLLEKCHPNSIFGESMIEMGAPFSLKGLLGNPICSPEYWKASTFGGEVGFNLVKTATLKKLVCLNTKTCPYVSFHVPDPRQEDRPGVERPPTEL
The test can be described thus: Colorimetric COX (ovine) inhibitor screening assay, COX-1. In kind it is biochemical. The conditions noted are these: ovine COX-1, colorimetric kit; mean ± SE. The procedure: (§3) Inhibition of COX activity was measured using a colorimetric COX (ovine) inhibitor screening assay kit (Cayman Chemical, Ann Arbor, Michigan, USA). First, 150 μL of assay buffer (0.1 M Tris-HCl, pH 8.0), 10 μL of heme, and 10 μL of enzyme (COX-1 or COX-2) were added to an […] 96-well microtiter plate. Immediately, 10 μL of sample was added to inhibitor wells while 10 μL of solvent or buffer was added to control and background wells, respectively. […] The mixture was shaken for a few seconds and incubated for an additional 5 min at 25 °C. The absorbance was determined at 590 nm using a microplate reader (Benchmark plus, Biorad, Herfordshire, UK). […] The corrected absorbance of all the samples and controls was calculated by subtracting the absorbance of the background wells. The percentage of inhibition was calculated as follows: Inhibition (%) = (Ao − As)/Ao × 100 (2) where Ao and As are the absorbance of the corrected control and sample, respectively.

The test system of test [3] is COX-2. Nature of the test: Colorimetric COX (ovine) inhibitor screening assay, COX-2. In kind it is biochemical. The conditions noted are these: ratio of COX-1 IC50 to COX-2 IC50. How it is done:
as §3

Test [4] concerns the target T2, COX-2 (Ovis aries, UniProt P79208).
T2 sequence (P79208 17-603): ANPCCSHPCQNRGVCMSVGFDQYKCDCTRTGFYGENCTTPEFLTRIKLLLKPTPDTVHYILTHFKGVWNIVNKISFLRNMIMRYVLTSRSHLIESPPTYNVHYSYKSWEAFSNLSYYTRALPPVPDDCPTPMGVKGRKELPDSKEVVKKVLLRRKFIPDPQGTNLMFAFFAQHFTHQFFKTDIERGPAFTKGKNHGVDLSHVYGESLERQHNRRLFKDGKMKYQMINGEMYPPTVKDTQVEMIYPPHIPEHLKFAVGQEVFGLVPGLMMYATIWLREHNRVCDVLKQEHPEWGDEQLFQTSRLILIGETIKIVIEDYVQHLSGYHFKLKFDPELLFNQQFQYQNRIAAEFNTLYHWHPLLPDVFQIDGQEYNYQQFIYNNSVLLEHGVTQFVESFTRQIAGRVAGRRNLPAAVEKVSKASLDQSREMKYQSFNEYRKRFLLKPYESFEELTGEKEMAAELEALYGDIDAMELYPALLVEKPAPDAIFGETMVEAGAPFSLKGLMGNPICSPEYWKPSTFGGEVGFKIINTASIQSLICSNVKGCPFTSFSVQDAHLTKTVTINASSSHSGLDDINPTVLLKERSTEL
Described as above. In kind it is biochemical. The conditions noted are these: ovine COX-2, colorimetric kit; mean ± SE. How it is done: as §3

The test system of test [5] is mushroom tyrosinase. The test can be described thus: Kinetic analysis of tyrosinase inhibition (Lineweaver-Burk plots). In kind it is biochemical. The conditions noted are these: substrate L-tyrosine; for Inhibition Type: Lineweaver-Burk plots, inhibitor 0, 5, 15 μM; for Ki: plot of Km/Vmax versus inhibitor concentration, read-out: Inhibition Constant (Ki). The procedure:
Tyrosinase activity was assayed as described in the text.
as §2

The subject of test [6] is mushroom tyrosinase. On the set-up: method as in doi:10.1016/S0031-9422(00)82317-1. The conditions noted are these: cited from earlier work.
Setting [7] is: Mus musculus, B16-F10, mean ± SE.

As usually defined, the IC50 is the concentration that gives 50% inhibition. Turning to `N[C@@H](Cn1ccc(=O)c(O)c1)C(=O)N[C@@H](Cc1ccccc1)C(=O)O` [Mi-L-Phe], the IC50 is 121 ± 8.6 µM in the test on B16F10 melanoma cells (setting [7]); 179.2 ± 1.3 µM in test [1] (Mus musculus, B16-F10, 48 h); 24.1 ± 3.8 µM at mushroom tyrosinase [2].

On to `N[C@@H](Cn1ccc(=O)c(O)c1)C(=O)N1CCC[C@@H]1C(=O)O` [Mi-D-Pro], for which the IC50 was 21 ± 2 µM against COX-1; 128 ± 7.7 µM against COX-2 [4]; 123 ± 3 µM in the test with B16F10 melanoma cells (setting [7]); 146 ± 5.2 µM in test [1] (Mus musculus, B16-F10, 48 h); 17.2 ± 2.1 µM at mushroom tyrosinase [2]. The “SI COX-1/COX-2 (selectivity index, COX-1 IC50/COX-2 IC50)” value in the test with COX-2 [3] is listed as 0.15.

As usually defined, the Ki is a measure of affinity in units of concentration, obtained from inhibition or displacement. On to `N[C@@H](Cn1ccc(=O)c(O)c1)C(=O)N1CCC[C@H]1C(=O)O` [Mi-L-Pro], for which the half-inhibitory concentration (IC50) on COX-1 is 17.9 ± 2.1 µM; against COX-2 [4] it was 29.3 ± 3 µM; with B16F10 melanoma cells (setting [7]), 110 ± 5.3 µM; in test [1] (Mus musculus, B16-F10, 48 h), 167 ± 7.3 µM; at mushroom tyrosinase [2], 13 µM and 13.1 µM. In addition, the “Inhibition Type” value in the test with mushroom tyrosinase [5] was “competitive”. Also, on mushroom tyrosinase [5], the Ki was found to be 50 µM.

Turning to `CC(C)[C@@H](NC(=O)[C@@H](N)Cn1ccc(=O)c(O)c1)C(=O)O` [Mi-D-Val], the “Inhibition Type” value in the test with mushroom tyrosinase [5] is “competitive”. Also, on mushroom tyrosinase [5], the Ki was 20 µM. For the same compound, the half-inhibitory concentration (IC50) is 112 ± 8.1 µM with B16F10 melanoma cells (setting [7]); 162 ± 4.1 µM in test [1] (Mus musculus, B16-F10, 48 h); 10 µM and 10.3 µM against mushroom tyrosinase [2].

For the compound `N[C@@H](Cn1ccc(=O)c(O)c1)C(=O)O` [Mimosine, β-[N-(3-hydroxy-4-oxypyridyl)]-α-aminopropionic acid], the 50% inhibitory concentration (IC50) is 29 µM and 28.8 µM against COX-1; 21 µM and 20.9 µM against COX-2 [4]; about 226 µM in the test with B16F10 melanoma cells (setting [7]); 226 ± 4 µM in the test with B16F10 melanoma cells (mean ± SE); 388 ± 7.2 µM in test [1] (48 h); about 388 µM in test [1] (Mus musculus, B16-F10, 48 h). The same compound gave an IC50 against mushroom tyrosinase [2] of 32.4 ± 1.1 µM. Also, the “Inhibition type of tyrosinase” value in the test with mushroom tyrosinase [6] is listed as “competitive”. Further, the “SI COX-1/COX-2 (selectivity index, COX-1 IC50/COX-2 IC50)” value in the test with COX-2 [3] is 1.38.

`C[C@@H](NC(=O)[C@@H](N)Cn1ccc(=O)c(O)c1)C(=O)O` [Mi-D-Ala]: the concentration for half-maximal inhibition (IC50) on COX-1 came out at 19.1 ± 1 µM; against COX-2 [4], 198 ± 3.7 µM; in the test with B16F10 melanoma cells (setting [7]) it was 199 ± 5.2 µM; in test [1] (Mus musculus, B16-F10, 48 h), 181 ± 6.8 µM; against mushroom tyrosinase [2] it was 17.7 ± 3.1 µM. For the same compound, the “SI COX-1/COX-2 (selectivity index, COX-1 IC50/COX-2 IC50)” value in the test with COX-2 [3] was found to be 0.10.

`C[C@H](NC(=O)[C@@H](N)Cn1ccc(=O)c(O)c1)C(=O)O` [Mi-L-Ala]: the concentration for half-maximal inhibition (IC50) in the test on B16F10 melanoma cells (setting [7]) worked out at 128 ± 7.4 µM; in test [1] (Mus musculus, B16-F10, 48 h) it was 172 ± 4.6 µM; against mushroom tyrosinase [2], 23.1 ± 2.2 µM.

`N[C@@H](Cn1ccc(=O)c(O)c1)C(=O)N[C@H](Cc1ccccc1)C(=O)O` [Mi-D-Phe]: the half-maximal inhibitory concentration (IC50) worked out at 168.4 ± 1.4 µM in the test on B16F10 melanoma cells (setting [7]); 194 ± 6.2 µM in test [1] (Mus musculus, B16-F10, 48 h); 19.7 ± 0.8 µM against mushroom tyrosinase [2].

Take `N[C@@H](Cn1ccc(=O)c(O)c1)C(=O)N[C@H](Cc1c[nH]c2ccccc12)C(=O)O` [Mi-D-Trp]: the IC50 was 26.1 ± 1.3 µM against COX-1; 27.5 ± 2.2 µM at COX-2 [4]; 116 ± 4.9 µM in the test on B16F10 melanoma cells (setting [7]); 150 ± 2.3 µM in test [1] (Mus musculus, B16-F10, 48 h); 17 µM and 16.9 µM against mushroom tyrosinase [2]. The “SI COX-1/COX-2 (selectivity index, COX-1 IC50/COX-2 IC50)” value with COX-2 [3] is listed as 0.95. In addition, in the test on mushroom tyrosinase [5], the “Inhibition Type” value was “competitive”. In addition, the inhibitory constant (Ki) at mushroom tyrosinase [5] was 80 µM.

Take `CC(C)[C@H](NC(=O)[C@@H](N)Cn1ccc(=O)c(O)c1)C(=O)O` [Mi-L-Val]: the IC50 against COX-1 was 24.4 ± 1.4 µM; at COX-2 [4] it was 22 µM and 21.7 µM; in the test with B16F10 melanoma cells (setting [7]) it was 170 ± 7.5 µM; in test [1] (Mus musculus, B16-F10, 48 h) it was 172 ± 6.5 µM; against mushroom tyrosinase [2], 12 µM and 11.5 µM. Also, in the test on COX-2 [3], the “SI COX-1/COX-2 (selectivity index, COX-1 IC50/COX-2 IC50)” value is recorded as 1.12. For the same compound, the “Inhibition Type” value in the test with mushroom tyrosinase [5] is given as “competitive”. At mushroom tyrosinase [5], the Ki amounted to 30 µM.

With `N[C@@H](Cn1ccc(=O)c(O)c1)C(=O)N[C@@H](Cc1c[nH]c2ccccc12)C(=O)O` [Mi-L-Trp], the half-inhibitory concentration (IC50) at COX-1 is 20.4 ± 1.6 µM; at COX-2 [4], 19 µM and 19.3 µM; in the test on B16F10 melanoma cells (setting [7]), 109 ± 2.7 µM; in test [1] (Mus musculus, B16-F10, 48 h), 156 ± 8.3 µM; at mushroom tyrosinase [2], 19.2 ± 1.5 µM.
